Results on two molecules are retold here after article PMC10747479, “Improving Bioaccessibility and Bioavailability of Isoflavone Aglycones from Chickpeas by Germination and Forming β-Cyclodextrin Inclusion Complexes” (Pharmaceutics, 2023).

Structures are written as SMILES. Read-outs that look alike come from different tables or passages of the source.

Data set [1] is described as follows: Oral pharmacokinetics of FMN and BCA in rat plasma after CSE or CSE/β-CD inclusion complex. It is filed as in vivo, Sprague–Dawley (SD) rats. As to conditions: rats; for AUC(0-inf) / AUC(0-t) / Cmax / half-life / k el / Tmax: male, Sprague-Dawley, rat; for AUC(0-inf) / AUC(0-t) / Cmax / half-life / k el / Tmax / CL / Vd: plasma, FMN approx. 5 mg/kg, BCA approx. 18 mg/kg; for AUC(0-inf) / AUC(0-t) / Cmax / half-life / k el: po; for k el: read-out: Ke (converted); for time at which concentration in rat plasma reached the peak / relative bioavailability in the inclusion complex relative to the CSE: oral; for time at which concentration in rat plasma reached the peak: given the CSE or the inclusion complex; for relative bioavailability in the inclusion complex relative to the CSE: ratio of the AUC. The procedure: (§1) The specific pathogen-free (SPF) male Sprague–Dawley (SD) rats (average body weight, 220 ± 10 g) aged eight weeks old were purchased from Shanghai Slake Laboratory Animal Co., Ltd. (Shanghai, China). After being raised in an environment-controlled feeding room for 1 week, the SD rats were divided into three groups (groups A, B, and C), with six in each group. They were fasted for 12 h and supplied with unlimited water before the experiments. In group A, 200 mg of the CSE/β-CD inclusion complex (FMN: 1.04 mg, BCA: 3.58 mg) was weighed and prepared into a 3 mL suspension by pure water and then given to each rat by gavage. In group B, a certain amount of CSE with FMN of the same quality as that in the inclusion complex was weighed and prepared into a 3 mL suspension by pure water and then given to each rat by gavage. In group C, a certain amount of CSE, ensuring that the content of BCA was the same as that in the inclusion complex, was weighed and prepared into s 3 mL suspension by pure water and then given to each rat by gavage. The dosage of FMN and BCA in rats was controlled at approximately 5 mg/kg and 18 mg/kg, respectively. Approximately 300 μL rat retro-orbital blood samples were obtained and transferred to heparinized tubes […] at 0.083, 0.25, 0.50, 0.75, 1, 2, 4, 6, 8, 12, and 24 h following intragastric administration. After centrifuging at 3500 rpm for 10 min, the upper plasma was put in clean tubes and placed at −20 °C before use. The rats were killed using the carbon dioxide box after taking blood at the last time point. A batch of new SD rats was raised with the same grouping and administration method for the study of tissue composition. At 0.25 h after intragastric administration, the rats were killed, and the organs including hearts, livers, spleens, lungs, kidneys, and brains were quickly separated, put into centrifuge tubes, and temporarily stored at 4 °C.
To comparatively evaluate the pharmacokinetics of the isoflavones in CSE and the CSE/β-CD inclusion complex, the content of FMN and BCA in rat plasma was determined on a UPLC-MS/MS system equipped with a Waters ACQUITY UPLC and a Xevo TQ-S micro ESI-MS/MS system (Milford, America). An ACQUITY UPLC BEH-C18 (2.1 mm × 100 mm, 1.7 μm) column was applied for the separation work using 0.05% formic acid in water (A) and acetonitrile (B) as the mobile phase with a flow rate of 0.2 mL/min and a column temperature of 30 °C. The gradient elution program was as follows: 0-6 min, A 50%. The selected multiple reaction monitoring (MRM) modes in the negative ESI mode of the mass spectrometer were used for all the analytes, and the capillary voltage was set at 2.66 kV with a source temperature of 150 °C using nitrogen as the desolvation gas and cone gas. The CHL was used as an internal standard (IS).
All plasma samples were stored at −20 °C and thawed at room temperature. To precipitate the protein, a 100 μL plasma sample was precisely aspirated, adding 40 μL of the IS solutions and 260 μL of acetonitrile, and vortexing for 3 min. Then the mixture was centrifuged at 13,000 rpm for 10 min and the 5 μL supernatant was injected for = UPLC-MS/MS analysis.
Compared with the rats fed the CSE, the rats fed the inclusion complex had higher Cmax, longer elimination half-lives (t1/2), larger areas under the concentration–time curve (AUC), and lower apparent volumes of distribution (Vd) and plasma clearance (CL). […] This caused the content of FMN and BCA in rats to be higher and have a longer retention time. The relative bioavailability of the two isoflavones in the inclusion complex relative to the CSE was calculated using the ratio of the AUC. […] It is reported that β-CD and its derivatives can inhibit the activity of P-glycoprotein, which is closely related to the bioavailability of oral drugs. The decrease in P-glycoprotein activity can reduce the excretion of drugs from cells.

The nature of data set [2]: Tissue distribution of FMN and BCA in rats after oral CSE or inclusion complex. Type of data set: in vivo, Sprague–Dawley (SD) rats. Particulars: 0.25 h after intragastric administration; for distribution characteristics of the contents in rat tissues: CSE or inclusion complex. The procedure: as §1
The contents of FMN and BCA in the tissues of rats were also determined by the above-established UPLC-MS/MS method.
The tissue was washed with normal saline to remove the residual blood, the water on the surface of the tissue was dried, and the tissue was weighed, cut into small pieces, and put into a centrifuge tube. Then, it was added to normal saline of the same amount as the tissue and ground into a homogenate. Then, 300 μL of the tissue homogenate was placed into a centrifuge tube, adding 60 μL of IS and 840 μL of acetonitrile to precipitate the protein. After centrifuging at 13,000 rpm for 10 min, the supernatant was collected and centrifuged again. Finally, the obtained supernatant was taken for subsequent analysis.

Data set [3] in a line: In vitro release in simulated gastric and intestinal fluid. Type of data set: physicochemical. As to conditions: artificial gastric juice and artificial intestinal juice, 37 °C, 100 rpm, up to 24 h. On the procedure:
According to the determination method of dissolution and release in Chinese Pharmacopoeia 2020, the in vitro sustained release of the isoflavones in the CSE/β-CD inclusion complex and CSE was determined on a SOTAX AT. 7× dissolution tester (Stetten, Switzerland) with a stirring rate of 100 rpm at 37 °C [16] using FMN and BCA as the evaluation index. Simulated gastric fluid (SGF) and simulated intestinal fluid (SIF) were used as release media. The preparation method of SGF was to mix 16.4 mL of the HCl solution (9.5–10.5% by volume) and 10 g of pepsin into 800 mL water, and finally adjust the volume to 1000 mL of water. The preparation of SIF was to add 6.8 g of potassium dihydrogen phosphate to 500 mL of water (use 0.1 M NaOH to adjust the pH to 6.8), then add 10 g of trypsin, and finally adjust the volume to 1000 mL of water. The CSE/β-CD inclusion complex (400.00 mg, containing 2.08 mg FMN and 7.16 mg BCA), CSE (94.12 mg, containing 2.08 mg FMN), and CSE (205.16 mg, containing 7.16 mg BCA) were weighed and added to 900 mL of release media, respectively. […] The sample was added to 3 times the volume of acetonitrile to remove the protein, then centrifuged at 10000 rpm for 10 min, and the obtained supernatant was analyzed by HPLC. […]

Data set [4] can be described thus: Inclusion ratio and drug loading of the CSE/β-CD inclusion complex. It is filed as physicochemical. As to conditions: for inclusion ratio: CSE with β-CD, optimal conditions: β-CD/CSE 4:1, 40 °C, 400 rpm, 2 h; for drug loading in the CSE/β-CD inclusion complex: optimal conditions. On the procedure:
A saturated aqueous solution method was used to prepare the inclusion complexes. β-CD (456 mg) was dispersed into 20 mL of water and heated with a water bath. CSE was accurately weighed according to the mass ratio of β-CD/CSE at 7:1 (g/g) to 3:1 (g/g) and dissolved in a small amount of ethanol to obtain CSE ethanol suspension, which was slowly dripped into the β-CD aqueous solution under 30 to 70 °C and at a stirring speed of 200 rpm to 1000 rpm. The mixed solution was stirred for 0.5 h to 4 h. After cooling to room temperature, the mixture was placed at 4 °C for 24 h, and then filtered quickly. The filter residue was moistened with a small amount of ethanol and dried to obtain the β-CD/CSE inclusion complex. The amounts of BCA and FMN in the initial CSE (Mc) and filtrate (Mf) were determined under the same conditions as above using an Agilent 1260 Infinity II HPLC. The inclusion ratio of FMN and BCA was used as an evaluation index to optimize the preparation methods. The calculation formula of the inclusion ratio (R%) was as follows:(1) R%=1−Mf/Mc×100% where Mf is the mass of the remaining isoflavones in the filtrate and Mc is the mass of the isoflavones in the CSE initially added.

[5] abbreviates: oral gavage of CSE/β-CD inclusion complex.

Consider `COc1ccc(-c2coc3cc(O)cc(O)c3c2=O)cc1` [BCA, biochanin A], for which, in data set [1] (setting [5]), the total exposure AUC(0-inf) worked out at 173 ± 56.3 ng·h/mL, the AUC(0-t) stood at 102 ± 45.3 ng·h/mL, the Cmax was determined as 22.4 ± 2.45 ng/mL and the half-life is 7.33 ± 3.07 h. In addition, in data set [1] (setting [5]), the k el was 3.06e-05 s⁻¹, the CL turned out to be 93.83 ± 29.01 L/h and the Vd was determined as 896.37 ± 113.90 L. In data set [1] (oral gavage of CSE), this molecule gave an AUC(0-inf) of 61.9 ± 15.5 ng·h/mL, an AUC(0-t) of 37.6 ± 17.7 ng·h/mL, a Cmax of 13.9 ± 3.17 ng/mL and a half-life of 4.63 ± 0.88 h. In addition, in data set [1] (oral gavage of CSE), the k el is 4.17e-05 s⁻¹, the Tmax stood at 0.25 h, the CL is recorded as 252.24 ± 52.73 L/h and the Vd is on record as 1635.82 ± 92.84 L. In addition, in data set [1], the “time at which concentration in rat plasma reached the peak” value came out at 15 min and the “relative bioavailability in the inclusion complex relative to the CSE” value amounted to 270.7%. Further, in data set [2], the “content in the tissues, inclusion complex compared with CSE” value was “significantly higher” and the “distribution characteristics of the contents in rat tissues” value is “liver > kidneys > lungs > spleen > heart > brain”. Further, the “solubility and dissolution properties by forming the CSE/β-CD inclusion complex, compared with CSE” value in data set [3] is recorded as “significantly improved”. In addition, in data set [4], the inclusion ratio stood at 81.79% and the “drug loading in the CSE/β-CD inclusion complex” value is given as 17.9 mg/g.

Consider `COc1ccc(-c2coc3cc(O)ccc3c2=O)cc1` [FMN, formononetin], for which, in data set [1] (setting [5]), the AUC(0-inf) turned out to be 72 ± 25.7 ng·h/mL, the AUC(0-t) came to 51.5 ± 12.3 ng·h/mL, the Cmax worked out at 21 ± 2.81 ng/mL and the half-life is 4.51 ± 2.07 h. Besides, in data set [1] (setting [5]), the k el is 5.56e-05 s⁻¹, the CL came out at 75.79 ± 23.47 L/h and the Vd is 441.60 ± 140.88 L. Moreover, in data set [1] (oral gavage of CSE), the AUC(0-inf) is 37 ± 12.9 ng·h/mL, the exposure AUC(0-t) was 30 ± 15.2 ng·h/mL, the Cmax amounted to 14.4 ± 1.46 ng/mL and the half-life is 3.84 ± 2.1 h. In data set [1] (oral gavage of CSE), the k el was 6.39e-05 s⁻¹, the time of peak concentration (Tmax) turned out to be 0.25 h, the CL came out at 148.14 ± 47.18 L/h and the Vd is reported as 722.51 ± 197.97 L. In addition, in data set [1], the “time at which concentration in rat plasma reached the peak” value was 15 min and the “relative bioavailability in the inclusion complex relative to the CSE” value came to 171.6%. Besides, in data set [2], the “content in the tissues, inclusion complex compared with CSE” value is recorded as “significantly higher” and the “distribution characteristics of the contents in rat tissues” value was “liver > kidneys > lungs > spleen > heart > brain”. The “solubility and dissolution properties by forming the CSE/β-CD inclusion complex, compared with CSE” value in data set [3] is given as “significantly improved”. In data set [4], the inclusion ratio turned out to be 53.31% and the “drug loading in the CSE/β-CD inclusion complex” value is 5.2 mg/g.

The AUC(0-inf) is the area under the concentration-time curve extrapolated to infinity. A high value points to more exposure. Broadly, the AUC(0-t) is exposure summed from dosing to a finite time, without extrapolation to infinity. Low values mean less exposure, high ones more exposure. The term Cmax denotes the maximum level reached in the sampled fluid or tissue. By half-life is commonly meant how long it takes for the measured level to halve. Lower therefore signals rapid decline. For orientation: Tmax means the time at which the peak concentration occurs.
